Results taken from patent EP4678638A1, “NEW E3 UBIQUITIN LIGASE LIGAND, PROTEIN DEGRADATION AGENT AND USE THEREOF” (priority 2023, dated 2024).

Columns and labels:
EGFR = experiment: Western blot degradation of EGFR (H1975 Cell); format: cell-based, Human; settings: Table D2
In short: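 Degradation is assessed by immunoblotting lysates of treated cells. Target bands are quantified by grayscale and normalised to an internal control, so degradation rate equals 100% minus % remaining.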

H1975 = experiment: CCK-8 proliferation, NCI-H1975 (H1975); format: cell-based, Human; settings: Homo sapiens, NCI-H1975; CCK-8; 96 hours; read-out: Inhibitory activity (IC50) on tumor cell proliferation, H1975
In short: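 CCK-8 viability readout; IC50 from growth-inhibition curve fitting. Cells plated, dosed 24h later with a 10-point series, top 10µM, 5-fold steps. Culture at 37°C, 5% CO2.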

IC50 (H1975)	SMILES	Degradation of substrate protein EGFR (substrate protein remaining %) (EGFR)
0.001 to 0.01 µM	CN(Cc1ccnc(N2CCC(=O)NC2=O)c1)C1CCN(c2ccc(-c3cc(F)c4c(c3)C(=O)N(C(C(=O)Nc3nccs3)c3ncn5c3CCC5)C4)cc2)CC1 (stereo not shown) [GT-07383, 2-(6,7-dihydro-5H-pyrrolo[1,2-c]imidazol-1-yl)-2-(6-(4-(4-(((2-(2,4-dioxotetrahydropyrimidin-1(2H)-yl)pyridin-4-yl)methyl)(methyl)amino)piperidin-1-yl)phenyl)-4-fluoro-1-oxoisoindolin-2-yl)-N-(thiazol-2-yl)acetamide]	A (A is defined as 0% ≤ substrate protein remaining % ≤ 80%)
0.001 to 0.01 µM	O=C1CCN(c2ccc(CN3CCN(C4CCN(c5ccc(-c6cc(F)c7c(c6)C(=O)N(C(C(=O)Nc6nccs6)c6ncn8c6CCC8)C7)cc5)CC4)CC3)nc2)C(=O)N1 (stereo not shown) [GT-06246, 2-(6,7-dihydro-5H-pyrrolo[1,2-c]imidazol-1-yl)-2-(6-(4-(4-(4-((5-(2,4-dioxotetrahydropyrimidin-1(2H)-yl)pyridin-2-yl)methyl)piperazin-1-yl)piperidin-1-yl)phenyl)-4-fluoro-1-oxoisoindolin-2-yl)-N-(thiazol-2-yl)acetamide]	A (A is defined as 0% ≤ substrate protein remaining % ≤ 80%)
0.001 to 0.01 µM	O=C1CCN(c2ccc(CN3CCN(c4ccc(-c5cc(F)c6c(c5)C(=O)N(C(C(=O)Nc5nccs5)c5ncn7c5CCC7)C6)cc4)CC3)cc2)C(=O)N1 (stereo not shown) [GT-06164, 2-(6,7-dihydro-5H-pyrrolo[1,2-c]imidazol-1-yl)-2-(6-(4-(4-(4-(2,4-dioxotetrahydropyrimidin-1(2H)-yl)benzyl)piperazin-1-yl)phenyl)-4-fluoro-1-oxoisoindolin-2-yl)-N-(thiazol-2-yl)acetamide]	A (A is defined as 0% ≤ substrate protein remaining % ≤ 80%)
0.01 to 0.05 µM	O=C1CCN(c2ccc(CN3CCN(C4CCN(c5ccc(-c6cc(F)c7c(c6)C(=O)N(C(C(=O)Nc6nccs6)c6ncn8c6CCC8)C7)cc5)CC4(F)F)CC3)cc2)C(=O)N1 (stereo not shown) [GT-06318, 2-(6,7-dihydro-5H-pyrrolo[1,2-c]imidazol-1-yl)-2-(6-(4-(4-(4-(4-(2,4-dioxotetrahydropyrimidin-1(2H)-yl)benzyl)piperazin-1-yl)-3,3-difluoropiperidin-1-yl)phenyl)-4-fluoro-1-oxoisoindolin-2-yl)-N-(thiazol-2-yl)acetamide]	A (A is defined as 0% ≤ substrate protein remaining % ≤ 80%)
0.01 to 0.05 µM	O=C1CCC(Nc2cccc(CN3CCC(N4CCN(c5ccc(-c6cc(F)c7c(c6)C(=O)N(C(C(=O)Nc6nccs6)c6ncn8c6CCC8)C7)cc5)CC4)CC3)c2)C(=O)N1 (stereo not shown) [GT-06331, 2-(6,7-dihydro-5H-pyrrolo[1,2-c]imidazol-1-yl)-2-(6-(4-(4-(1-(3-((2,6-dioxopiperidin-3-yl)amino)benzyl)piperidin-4-yl)piperazin-1-yl)phenyl)-4-fluoro-1-oxoisoindolin-2-yl)-N-(thiazol-2-yl)acetamide]	A (A is defined as 0% ≤ substrate protein remaining % ≤ 80%)
0.001 to 0.01 µM	O=C1CCC(c2ccc(CN3CCN(C4CCN(c5ccc(-c6cc(F)c7c(c6)C(=O)N(C(C(=O)Nc6nccs6)c6ncn8c6CCC8)C7)cc5)CC4)CC3)cc2)C(=O)N1 (stereo not shown) [GT-06243, 2-(6,7-dihydro-5H-pyrrolo[1,2-c]imidazol-1-yl)-2-(6-(4-(4-(4-(4-(2,6-dioxopiperidin-3-yl)benzyl)piperazin-1-yl)piperidin-1-yl)phenyl)-4-fluoro-1-oxoisoindolin-2-yl)-N-(thiazol-2-yl)acetamide]	A (A is defined as 0% ≤ substrate protein remaining % ≤ 80%)
0.001 to 0.01 µM	CN(Cc1cncc(C2CCC(=O)NC2=O)c1)C1CCN(c2ccc(-c3cc(F)c4c(c3)C(=O)N(C(C(=O)Nc3nccs3)c3ncn5c3CCC5)C4)cc2)CC1 (stereo not shown) [GT-07393, 2-(6,7-dihydro-5H-pyrrolo[1,2-c]imidazol-1-yl)-2-(6-(4-(4-(((5-(2,6-dioxopiperidin-3-yl)pyridin-3-yl)methyl)(methyl)amino)piperidin-1-yl)phenyl)-4-fluoro-1-oxoisoindolin-2-yl)-N-(thiazol-2-yl)acetamide]	A (A is defined as 0% ≤ substrate protein remaining % ≤ 80%)
0.01 to 0.05 µM	O=C1CCC(c2ccc(CN3C[C@@H]4C[C@H]3CN4c3ccc(-c4cc(F)c5c(c4)C(=O)N(C(C(=O)Nc4nccs4)c4ncn6c4CCC6)C5)cc3)cc2)C(=O)N1 (stereo partly drawn) [GT-05115, 2-(6,7-dihydro-5H-pyrrolo[1,2-c]imidazol-1-yl)-2-(6-(4-((1S,4S)-5-(4-(2,6-dioxopiperidin-3-yl)benzyl)-2,5-diazabicyclo[2.2.1]heptan-2-yl)phenyl)-4-fluoro-1-oxoisoindolin-2-yl)-N-(thiazol-2-yl)acetamide]	A (A is defined as 0% ≤ substrate protein remaining % ≤ 80%)
0.01 to 0.05 µM	O=C1CCN(c2ccc(CN3C[C@@H]4C[C@H]3CN4c3ccc(-c4cc(F)c5c(c4)C(=O)N(C(C(=O)Nc4nccs4)c4ncn6c4CCC6)C5)cc3)nc2)C(=O)N1 (stereo partly drawn) [GT-05119, 2-(6,7-dihydro-5H-pyrrolo[1,2-c]imidazol-1-yl)-2-(6-(4-((1S,4S)-5-((5-(2,4-dioxotetrahydropyrimidin-1(2H)-yl)pyridin-2-yl)methyl)-2,5-diazabicyclo[2.2.1]heptan-2-yl)phenyl)-4-fluoro-1-oxoisoindolin-2-yl)-N-(thiazol-2-yl)acetamide]	A (A is defined as 0% ≤ substrate protein remaining % ≤ 80%)
0.001 to 0.01 µM	O=C1CCN(c2cc(CN3C[C@H]4C[C@@H]3CN4c3ccc(-c4cc(F)c5c(c4)C(=O)N(C(C(=O)Nc4nccs4)c4ncn6c4CCC6)C5)cc3)c(F)cn2)C(=O)N1 (stereo partly drawn) [GT-07386, 2-(6,7-dihydro-5H-pyrrolo[1,2-c]imidazol-1-yl)-2-(6-(4-((1R,4R)-5-((2-(2,4-dioxotetrahydropyrimidin-1(2H)-yl)-5-fluoropyridin-4-yl)methyl)-2,5-diazabicyclo[2.2.1]heptan-2-yl)phenyl)-4-fluoro-1-oxoisoindolin-2-yl)-N-(thiazol-2-yl)acetamide]	A (A is defined as 0% ≤ substrate protein remaining % ≤ 80%)
0.01 to 0.05 µM	O=C1CCC(c2ccc(CN3CCC(N4CCN(c5ccc(-c6cc(F)c7c(c6)C(=O)N(C(C(=O)Nc6nccs6)c6ncn8c6CCC8)C7)cc5)CC4)CC3)cc2)C(=O)N1 (stereo not shown) [GT-06326, 2-(6,7-dihydro-5H-pyrrolo[1,2-c]imidazol-1-yl)-2-(6-(4-(4-(1-(4-(2,6-dioxopiperidin-3-yl)benzyl)piperidin-4-yl)piperazin-1-yl)phenyl)-4-fluoro-1-oxoisoindolin-2-yl)-N-(thiazol-2-yl)acetamide]	A (A is defined as 0% ≤ substrate protein remaining % ≤ 80%)
